The target in assay [1] is IRAK4 (Homo sapiens (Human), UniProt Q9NWZ3). Description: IRAK4 MSD degradation in OCI-LY10. In kind it is cell-based. In a few lines:
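Remaining IRAK4 quantified by electrochemiluminescent MSD sandwich assay with two anti-IRAK4 antibodies. Compounds were dosed as 8 concentrations in 1:3 steps from a 1 to 10 μM final top on OCI-LY10 cells, incubated 4 to 24 h at 37° C. under 5% CO2. DC50 fitted with a three-parameter logistic curve.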

The subject of assay [2] is OCI-LY10. Description: CTG Cell Viability Assay - OCI-LY10. The format is cell-based, human. As to conditions: OCI-LY10, 4 days, read-out: CTG Cell Viability Assay - OCI-LY10: Average external-IC50. In a few lines:
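Viability read by CellTiter-Glo luminescence after 4 days at 37° C under 5% CO2 with compound (top 10 μM final, 1:3 steps, 9 doses, DMSO 0.2%). Three-parameter logistic fit gave IC50.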

The mark [3] stands for this setting: OCI-LY10, 4 hrs, MSD, read-out: IRAK4 MSD degradation in OCI-LY10 at 4 hrs: Average external-Abs DC50.
Where [4] appears, read: OCI-LY10, 24 hrs, MSD, read-out: IRAK4 MSD degradation in OCI-LY10 at 24 hrs: Average external-Abs DC50.
Where [5] appears, read: OCI-LY10, 4 hrs, read-out: IRAK4 MSD degradation in OCI-LY10 at 4 hrs: DC50.
Where [6] appears, read: OCI-LY10, 24 hrs, read-out: IRAK4 MSD degradation in OCI-LY10 at 24 hrs: DC50.

Like-named read-outs stand apart in the source and are kept apart here. A value given as a limit tells only on which side of the number the result lay.

Sequence of IRAK4 (Q9NWZ3 whole entry): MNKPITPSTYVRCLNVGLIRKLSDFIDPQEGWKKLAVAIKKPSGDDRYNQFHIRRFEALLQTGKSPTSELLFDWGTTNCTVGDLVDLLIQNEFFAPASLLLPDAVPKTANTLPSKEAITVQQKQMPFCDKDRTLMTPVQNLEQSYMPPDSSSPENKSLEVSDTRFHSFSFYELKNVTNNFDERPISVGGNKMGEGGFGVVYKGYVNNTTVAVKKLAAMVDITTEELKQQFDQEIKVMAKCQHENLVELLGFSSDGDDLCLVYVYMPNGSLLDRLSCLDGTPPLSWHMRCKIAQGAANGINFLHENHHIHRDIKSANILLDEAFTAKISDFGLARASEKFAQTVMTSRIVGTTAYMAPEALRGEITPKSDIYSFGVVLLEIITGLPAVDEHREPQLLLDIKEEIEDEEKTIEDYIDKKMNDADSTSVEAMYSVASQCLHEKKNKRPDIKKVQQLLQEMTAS

One may read the DC50 as the concentration giving 50% degradation. The term IC50 denotes the concentration that gives 50% inhibition. As to `O=C(Nc1cn([C@H]2CC[C@H](CNC[C@H]3CC[C@H](n4cc(NC(=O)c5cnn6ccc(N7CCOCC7)nc56)c(C(F)F)n4)CC3)CC2)nc1C(F)F)c1cnn2ccc(N3CCOCC3)nc12` [I-408, N-[3-(difluoromethyl)-1-[4-[[[4-[3-(difluoromethyl)-4-[(5-morpholinopyrazolo[1,5-a]pyrimidine-3-carbonyl)amino]pyrazol-1-yl]cyclohexyl]methylamino]methyl]cyclohexyl]pyrazol-4-yl]-5-morpholino-pyrazol [1,5-a] pyrimidine-3-carboxamide], the DC50 in assay [1] (setting [3]) and in assay [1] (setting [4]) was more than 1000 nM in each case. Further, the IC50 in assay [2] (Homo sapiens, OCI-Ly10, 96 h) is more than 1000 nM.

As for `NCCCOCCCNC[C@H]1CC[C@H](n2cc(NC(=O)c3coc(-c4ccnc(NCC5CC5)c4)n3)c(C(F)F)n2)CC1` [I-235], the DC50 in assay [1] (setting [3]) and in assay [1] (setting [4]) was more than 1000 nM each time. Further, the IC50 in assay [2] (Homo sapiens, OCI-Ly10, 96 h) was more than 1000 nM.

With `Cn1c(=O)n(C2CCC(=O)NC2=O)c2ccc(CCCOC3CCN(C[C@H]4CC[C@H](n5cc(NC(=O)c6coc(-c7ccnc(NCC8CC8)c7)n6)c(C(F)F)n5)CC4)CC3)cc21` (some centres unmarked) [I-118], the DC50 in assay [1] (setting [3]) is less than 10 nM. Further, the IC50 in assay [2] (Homo sapiens, OCI-Ly10, 96 h) is more than 1000 nM.

Turning to `O=C1CCC(N2C(=O)c3cccc(NCCOC[C@H]4CC[C@H](n5cc(NC(=O)c6cnn7ccc(N8C[C@H]9C[C@@H]8CO9)nc67)c(C(F)F)n5)CC4)c3C2=O)C(=O)N1` (some centres unmarked) [I-369], the DC50 in assay [1] (setting [3]) and in assay [1] (setting [4]) was more than 1000 nM each time. Further, the concentration for half-maximal inhibition (IC50) in assay [2] (Homo sapiens, OCI-Ly10, 96 h) was in the range of 100 to 500 nM.

With `CN(CCCOCCCNc1cccc2c1C(=O)N(C1CCC(=O)NC1=O)C2=O)Cc1ccc(-n2cc(NC(=O)c3coc(-c4ccnc(NCC5CC5)c4)n3)c(C(F)F)n2)cc1` (centres unmarked) [I-392], the values for the DC50 in assay [1] (setting [3]) and in assay [1] (setting [4]) were 100 to 1000 nM and 10 to 100 nM, respectively. Further, in assay [2] (Homo sapiens, OCI-Ly10, 96 h), the IC50 fell in the range of 100 to 500 nM.

Take `COc1cc(C(=O)NCCOCCOCCN(C)C[C@H]2CC[C@H](n3cc(NC(=O)c4coc(-c5ccnc(NCC6CC6)c5)n4)c(C(F)F)n3)CC2)ccc1NC(=O)[C@@H]1N[C@@H](CC(C)(C)C)[C@](C#N)(c2ccc(Cl)cc2F)[C@H]1c1cccc(Cl)c1F` [I-145]: the DC50 in assay [1] (setting [3]) and in assay [1] (setting [4]) was more than 1000 nM in each case. In addition, the IC50 in assay [2] is more than 1000 nM.

For the molecule `C=C(C)c1nn([C@H]2CC[C@H](CN3CCC(OCCCc4cccc5c4n(C)c(=O)n5C4CCC(=O)NC4=O)CC3)CC2)cc1NC(=O)c1cnn2ccc(NCC3CC3)nc12` (some centres unmarked) [I-172], in assay [1] (setting [3]), the DC50 is 100 to 1000 nM. The IC50 in assay [2] (Homo sapiens, OCI-Ly10, 96 h) was more than 1000 nM.

With `Cn1c(=O)n(C2CCC(=O)NC2=O)c2cccc(CCCOCC3CCN(C[C@H]4CC[C@H](n5cc(NC(=O)c6coc(-c7ccnc(NCC8CC8)c7)n6)c(C(F)F)n5)CC4)CC3)c21` (some centres unmarked) [I-120], the DC50 in assay [1] (setting [3]) was less than 10 nM. The IC50 in assay [2] (Homo sapiens, OCI-Ly10, 96 h) was more than 1000 nM.

For `Cn1c(=O)n(C2CCC(=O)NC2=O)c2cccc(CCCOCCC(=O)N3CCN([C@H]4CC[C@H](Nc5ncnc6ccc(C#N)cc56)CC4)CC3)c21` (some centres unmarked) [I-159], the DC50 in assay [1] (setting [3]) and in assay [1] (setting [4]) was more than 1000 nM each time. Further, the IC50 in assay [2] (Homo sapiens, OCI-Ly10, 96 h) was more than 1000 nM.

Regarding `O=C1CCC(n2c(=O)oc3c(CCCOC4CCN(C[C@H]5CC[C@H](n6cc(NC(=O)c7cnn8ccc(N9CCNCC9)nc78)c(C(F)F)n6)CC5)CC4)cccc32)C(=O)N1` (some centres unmarked) [I-165], the DC50 in assay [1] (setting [3]) is 10 to 100 nM. Also, the IC50 in assay [2] (Homo sapiens, OCI-Ly10, 96 h) lay within 500 to 1000 nM.

Regarding `O=C1CCC(N2C(=O)c3cccc(NCC4CC5(CCN(Cc6ccc(-n7cc(NC(=O)c8cnn9ccc(N%10C[C@H]%11C[C@@H]%10CO%11)nc89)c(C(F)F)n7)cc6)CC5)C4)c3C2=O)C(=O)N1` (some centres unmarked) [I-462], the DC50 in assay [1] (setting [5]) is 100 to 1000 nM; in assay [1] (setting [6]), more than 1000 nM. In addition, in assay [2] (Homo sapiens, OCI-Ly10, 96 h), the IC50 was less than 50 nM.

In the case of `O=C1CCC(N2C(=O)c3cccc(NC[C@H]4CC[C@H](OC5CCN(C[C@H]6CC[C@H](n7cc(NC(=O)c8cnn9ccc(N%10CCOCC%10)nc89)c(C(F)F)n7)CC6)CC5)CC4)c3C2=O)C(=O)N1` (some centres unmarked) [I-473], the DC50 in assay [1] (setting [5]) is 10 to 100 nM; in assay [1] (setting [6]), less than 10 nM. For the same molecule, the IC50 in assay [2] (Homo sapiens, OCI-Ly10, 96 h) is less than 50 nM.
